This passage reports AC50 results from ChEMBL document CHEMBL5291721, “A preclinical secondary pharmacology resource illuminates target-adverse drug reaction associations of marketed drugs” (Nat Commun, 2023).

Some targets named below: Vasopressin V2 receptor (Homo sapiens, UniProt P30518); Vasopressin V1a receptor (Homo sapiens, UniProt P37288); Motilin receptor (Homo sapiens, UniProt O43193); Adenosine receptor A2a (Homo sapiens, UniProt P29274).
Assay [1] addresses Glutamate receptor ionotropic, NMDA 1 (Rattus norvegicus, UniProt P35439).
The next assay addresses T1, Glucocorticoid receptor (Homo sapiens, UniProt P04150).
T1 sequence (P04150 whole entry): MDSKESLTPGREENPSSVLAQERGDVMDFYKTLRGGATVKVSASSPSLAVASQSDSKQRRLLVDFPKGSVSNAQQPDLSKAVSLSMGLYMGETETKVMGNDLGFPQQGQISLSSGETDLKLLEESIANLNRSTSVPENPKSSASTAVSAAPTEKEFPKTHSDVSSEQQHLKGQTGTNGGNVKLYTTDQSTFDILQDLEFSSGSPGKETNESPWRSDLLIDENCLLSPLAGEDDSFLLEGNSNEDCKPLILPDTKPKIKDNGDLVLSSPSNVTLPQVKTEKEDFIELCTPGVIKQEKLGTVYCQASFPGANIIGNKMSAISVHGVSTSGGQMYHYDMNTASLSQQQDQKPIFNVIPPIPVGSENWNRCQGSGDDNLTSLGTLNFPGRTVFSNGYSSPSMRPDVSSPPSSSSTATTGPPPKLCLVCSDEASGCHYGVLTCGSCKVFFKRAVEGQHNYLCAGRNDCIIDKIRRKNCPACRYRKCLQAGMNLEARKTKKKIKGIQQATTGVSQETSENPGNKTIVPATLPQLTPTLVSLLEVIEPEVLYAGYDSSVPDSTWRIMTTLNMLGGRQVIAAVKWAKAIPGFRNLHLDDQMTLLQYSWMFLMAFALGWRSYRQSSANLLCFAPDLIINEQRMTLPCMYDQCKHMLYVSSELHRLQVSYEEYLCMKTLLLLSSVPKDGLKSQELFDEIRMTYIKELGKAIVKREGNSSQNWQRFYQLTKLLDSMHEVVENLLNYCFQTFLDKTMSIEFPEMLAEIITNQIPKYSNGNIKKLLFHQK

The target in another assay is T2, Progesterone receptor (Homo sapiens, UniProt P06401).
T2 sequence (P06401 whole entry): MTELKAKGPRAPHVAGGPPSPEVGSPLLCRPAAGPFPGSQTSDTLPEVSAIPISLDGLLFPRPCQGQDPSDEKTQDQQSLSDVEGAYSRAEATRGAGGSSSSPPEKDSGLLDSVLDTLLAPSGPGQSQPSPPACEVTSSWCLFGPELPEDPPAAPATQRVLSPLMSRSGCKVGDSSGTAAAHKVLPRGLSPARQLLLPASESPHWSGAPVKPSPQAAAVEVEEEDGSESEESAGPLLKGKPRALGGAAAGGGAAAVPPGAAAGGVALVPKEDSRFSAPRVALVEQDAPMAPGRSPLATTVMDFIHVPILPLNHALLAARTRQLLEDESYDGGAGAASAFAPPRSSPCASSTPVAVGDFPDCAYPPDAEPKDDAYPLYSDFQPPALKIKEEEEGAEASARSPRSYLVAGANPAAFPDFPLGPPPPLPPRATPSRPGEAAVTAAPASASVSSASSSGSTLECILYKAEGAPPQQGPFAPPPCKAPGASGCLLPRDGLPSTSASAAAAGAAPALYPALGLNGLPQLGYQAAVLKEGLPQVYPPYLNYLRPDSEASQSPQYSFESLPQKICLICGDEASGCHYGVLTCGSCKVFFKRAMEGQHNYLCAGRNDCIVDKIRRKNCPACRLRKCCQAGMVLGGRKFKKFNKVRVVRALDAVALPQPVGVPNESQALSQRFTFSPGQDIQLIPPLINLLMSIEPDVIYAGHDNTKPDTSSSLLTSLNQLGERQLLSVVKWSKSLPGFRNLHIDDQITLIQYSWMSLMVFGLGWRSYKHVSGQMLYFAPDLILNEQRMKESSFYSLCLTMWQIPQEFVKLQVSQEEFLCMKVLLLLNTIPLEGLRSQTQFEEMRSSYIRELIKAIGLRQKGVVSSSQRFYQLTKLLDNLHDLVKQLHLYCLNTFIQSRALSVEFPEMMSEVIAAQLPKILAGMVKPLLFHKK
It is filed as functional.

The target in assay [2] is T3, Gastrin/cholecystokinin type B receptor (Homo sapiens, UniProt P32239).
T3 sequence (P32239 whole entry): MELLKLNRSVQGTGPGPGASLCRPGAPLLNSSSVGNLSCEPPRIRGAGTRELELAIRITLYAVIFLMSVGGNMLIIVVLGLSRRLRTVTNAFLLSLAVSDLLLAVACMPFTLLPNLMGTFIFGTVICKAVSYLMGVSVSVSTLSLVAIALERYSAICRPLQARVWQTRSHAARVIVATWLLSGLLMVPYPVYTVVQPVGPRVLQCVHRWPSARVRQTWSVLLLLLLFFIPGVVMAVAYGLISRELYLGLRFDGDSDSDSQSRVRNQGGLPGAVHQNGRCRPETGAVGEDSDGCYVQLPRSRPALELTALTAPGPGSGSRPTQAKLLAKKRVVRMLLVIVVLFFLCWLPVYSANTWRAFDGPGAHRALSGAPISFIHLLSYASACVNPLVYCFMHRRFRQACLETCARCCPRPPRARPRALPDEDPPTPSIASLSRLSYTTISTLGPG

The target of assay [3] is T4, Neuropeptide Y receptor type 1 (Homo sapiens, UniProt P25929).
T4 sequence (P25929 whole entry): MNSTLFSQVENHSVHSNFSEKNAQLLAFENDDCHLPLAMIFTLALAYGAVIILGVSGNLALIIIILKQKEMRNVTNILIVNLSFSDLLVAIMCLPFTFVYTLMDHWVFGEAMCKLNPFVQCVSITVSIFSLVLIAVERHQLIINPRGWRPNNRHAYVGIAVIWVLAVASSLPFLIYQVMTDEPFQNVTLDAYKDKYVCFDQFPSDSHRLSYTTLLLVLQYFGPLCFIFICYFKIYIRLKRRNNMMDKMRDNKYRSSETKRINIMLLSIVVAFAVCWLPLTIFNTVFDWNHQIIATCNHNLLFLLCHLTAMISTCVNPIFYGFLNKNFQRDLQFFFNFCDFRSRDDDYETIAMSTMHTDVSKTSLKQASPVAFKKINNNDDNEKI
Also: assay procedure not described here.

Chain of Adenosine receptor A2a (P29274 whole entry): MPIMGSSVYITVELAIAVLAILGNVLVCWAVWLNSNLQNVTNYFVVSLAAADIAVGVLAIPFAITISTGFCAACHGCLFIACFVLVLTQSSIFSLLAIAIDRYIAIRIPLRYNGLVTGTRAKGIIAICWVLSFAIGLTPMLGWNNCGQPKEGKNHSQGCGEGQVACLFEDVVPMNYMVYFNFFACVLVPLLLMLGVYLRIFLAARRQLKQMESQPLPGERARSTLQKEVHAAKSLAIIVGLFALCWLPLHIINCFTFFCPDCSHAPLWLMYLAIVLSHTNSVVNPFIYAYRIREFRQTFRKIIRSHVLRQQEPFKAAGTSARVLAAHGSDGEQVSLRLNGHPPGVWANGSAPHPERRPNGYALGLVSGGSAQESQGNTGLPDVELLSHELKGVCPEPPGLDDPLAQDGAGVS
Chain of Vasopressin V2 receptor (P30518 whole entry): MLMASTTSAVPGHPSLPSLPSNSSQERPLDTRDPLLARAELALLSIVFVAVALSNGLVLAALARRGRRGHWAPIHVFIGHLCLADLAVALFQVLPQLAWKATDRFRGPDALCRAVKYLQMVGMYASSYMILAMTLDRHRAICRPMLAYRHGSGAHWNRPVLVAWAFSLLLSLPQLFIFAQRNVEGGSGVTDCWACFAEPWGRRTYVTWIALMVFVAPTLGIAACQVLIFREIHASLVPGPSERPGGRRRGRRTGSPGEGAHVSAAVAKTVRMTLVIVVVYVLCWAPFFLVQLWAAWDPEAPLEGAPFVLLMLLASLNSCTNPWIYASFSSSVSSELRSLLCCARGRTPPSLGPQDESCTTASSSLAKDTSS
Chain of Vasopressin V1a receptor (P37288 whole entry): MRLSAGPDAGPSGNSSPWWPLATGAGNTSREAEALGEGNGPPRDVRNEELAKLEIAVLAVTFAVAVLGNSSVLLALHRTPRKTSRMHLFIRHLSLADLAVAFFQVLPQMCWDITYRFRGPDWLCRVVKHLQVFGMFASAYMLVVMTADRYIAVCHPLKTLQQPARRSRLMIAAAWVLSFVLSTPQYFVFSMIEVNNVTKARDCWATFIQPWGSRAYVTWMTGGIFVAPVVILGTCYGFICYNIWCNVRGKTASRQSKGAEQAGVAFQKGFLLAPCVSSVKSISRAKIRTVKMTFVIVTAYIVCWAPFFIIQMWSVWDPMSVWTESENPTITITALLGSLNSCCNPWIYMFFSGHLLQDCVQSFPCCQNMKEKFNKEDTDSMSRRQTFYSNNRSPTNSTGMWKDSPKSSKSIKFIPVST
Chain of Motilin receptor (O43193 whole entry): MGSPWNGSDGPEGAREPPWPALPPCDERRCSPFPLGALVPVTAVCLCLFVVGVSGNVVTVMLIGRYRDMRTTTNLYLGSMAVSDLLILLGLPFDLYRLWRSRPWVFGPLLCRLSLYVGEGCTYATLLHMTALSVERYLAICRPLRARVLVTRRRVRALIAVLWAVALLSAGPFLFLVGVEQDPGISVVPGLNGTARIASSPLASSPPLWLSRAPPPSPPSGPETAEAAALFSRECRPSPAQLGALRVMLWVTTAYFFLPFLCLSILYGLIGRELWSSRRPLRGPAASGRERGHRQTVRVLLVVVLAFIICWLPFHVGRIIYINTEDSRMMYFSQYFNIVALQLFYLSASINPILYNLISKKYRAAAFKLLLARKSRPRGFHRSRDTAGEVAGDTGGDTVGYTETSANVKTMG

By AC50 is commonly meant the concentration at which the activity in the assay is half-maximal. On to `C=CCN1CCc2nc(N)sc2CC1` [TALIPEXOLE], for which the AC50 (at Vasopressin V2 receptor; in assay [1]; at Glucocorticoid receptor; on Vasopressin V1a receptor; on Progesterone receptor; on Motilin receptor) was > 30 µM throughout. For the same compound, the AC50 (in [2]; in [3]; on Adenosine receptor A2a) was > 30 µM each time.
For `CC/C=C\C/C=C\C/C=C\C/C=C\C/C=C\CCCC(=O)OCC` [ICOSAPENT ETHYL], the AC50 at Vasopressin V2 receptor was > 10 µM; in assay [1], > 30 µM; on Glucocorticoid receptor, > 30 µM; at Vasopressin V1a receptor, > 30 µM; on Progesterone receptor, > 30 µM; on Motilin receptor it was > 30 µM. The AC50 (in assay [2]; in assay [3]; on Adenosine receptor A2a) was > 30 µM each time.
For the compound `CC(C)N(CCCCOCC(=O)O)c1cnc(-c2ccccc2)c(-c2ccccc2)n1`, the AC50 (on Vasopressin V2 receptor; in [1]; on Glucocorticoid receptor; at Vasopressin V1a receptor; at Progesterone receptor; on Motilin receptor) was > 30 µM each time. For the same compound, the AC50 in [2] is > 3 µM; in assay [3], > 30 µM; on Adenosine receptor A2a it was > 30 µM.
With `c1ccc(C2(N3CCCCC3)CCCCC2)cc1` [PHENCYCLIDINE], the AC50 at Vasopressin V2 receptor was > 30 µM; in [1], 0.288 µM; on Glucocorticoid receptor it was > 30 µM; on Vasopressin V1a receptor, > 30 µM; at Progesterone receptor, > 30 µM; on Motilin receptor it was > 30 µM. In addition, the half-maximal activity concentration (AC50) (in assay [2]; in [3]; on Adenosine receptor A2a) was > 30 µM each time.
For the compound `O=C(NCCO[N+](=O)[O-])c1cccnc1` [NICORANDIL], the concentration at half-maximal activity (AC50) (on Vasopressin V2 receptor; in [1]; on Glucocorticoid receptor; at Vasopressin V1a receptor; at Progesterone receptor; on Motilin receptor) was > 30 µM in each case. Moreover, the AC50 (in assay [2]; in [3]; at Adenosine receptor A2a) was > 30 µM in each case.
With `CCc1cc2c(s1)-n1c(C)nnc1CN=C2c1ccccc1Cl` [ETIZOLAM], the half-maximal activity concentration (AC50) (at Vasopressin V2 receptor; in [1]; on Glucocorticoid receptor; at Vasopressin V1a receptor; at Progesterone receptor; on Motilin receptor) was > 30 µM throughout. Besides, the half-maximal activity concentration (AC50) (in assay [2]; in assay [3]; on Adenosine receptor A2a) was > 30 µM in each case.
Regarding `CC(C)(C)NCC(O)c1ccccc1Cl` (stereo unspecified) [TULOBUTEROL], the AC50 (on Vasopressin V2 receptor; in assay [1]; at Glucocorticoid receptor; at Vasopressin V1a receptor; at Progesterone receptor; on Motilin receptor) was > 30 µM each time. Moreover, the half-maximal activity concentration (AC50) (in [2]; in assay [3]; on Adenosine receptor A2a) was > 30 µM throughout.
As to `CO/N=C(\C(=O)N[C@@H]1C(=O)N2C(C(=O)O)=C(CSc3nc(=O)c(=O)[nH]n3C)CS[C@H]12)c1csc(N)n1` [CEFTRIAXONE], the AC50 (at Vasopressin V2 receptor; in [1]; at Glucocorticoid receptor; on Vasopressin V1a receptor; at Progesterone receptor; at Motilin receptor) was > 30 µM in each case. For the same compound, the AC50 (in assay [2]; in [3]; on Adenosine receptor A2a) was > 30 µM throughout.
As to `CC(C(=O)O)c1ccc2c(c1)CC(=O)c1ccccc1S2` (stereo unspecified) [ZALTOPROFEN], the AC50 (at Vasopressin V2 receptor; in [1]; at Glucocorticoid receptor; on Vasopressin V1a receptor; at Progesterone receptor; on Motilin receptor) was > 30 µM in each case. Also, the AC50 (in assay [2]; in assay [3]; on Adenosine receptor A2a) was > 30 µM throughout.
With `C[N+]12CCC(CC1)C(OC(=O)C(O)(c1ccccc1)c1ccccc1)C2` (stereo unspecified), the AC50 (at Vasopressin V2 receptor; in assay [1]; on Glucocorticoid receptor; on Vasopressin V1a receptor; at Progesterone receptor; at Motilin receptor) was > 30 µM each time. For the same compound, the AC50 (in assay [2]; in [3]; on Adenosine receptor A2a) was > 30 µM in each case.
Consider `O=C(O)CCNC(=O)c1ccc(/N=N/c2ccc(O)c(C(=O)O)c2)cc1` [BALSALAZIDE], for which the AC50 on Vasopressin V2 receptor was 36.9 µM; in assay [1] it was > 30 µM; on Glucocorticoid receptor it was > 30 µM; at Vasopressin V1a receptor, 33.7 µM; on Progesterone receptor, > 30 µM; at Motilin receptor, > 30 µM. In addition, the values for the AC50 (in assay [2]; in [3]; on Adenosine receptor A2a) were > 30 µM, > 30 µM and 33.1 µM, respectively.
Regarding `Cn1c(=O)c2c(ncn2CCOC(=O)C(C)(C)Oc2ccc(Cl)cc2)n(C)c1=O` [THEOFIBRATE], the AC50 (on Vasopressin V2 receptor; in assay [1]; on Glucocorticoid receptor; on Vasopressin V1a receptor; on Progesterone receptor; on Motilin receptor) was > 30 µM throughout. Also, the concentration at half-maximal activity (AC50) (in [2]; in assay [3]; at Adenosine receptor A2a) was > 30 µM each time.
Turning to `O=c1[nH]c2ccccc2n1CCCN1CCN(C(c2ccccc2)c2ccccc2)CC1` [OXATOMIDE], the AC50 is > 30 µM on Vasopressin V2 receptor; > 30 µM in [1]; > 30 µM at Glucocorticoid receptor; 22 µM on Vasopressin V1a receptor; > 30 µM on Progesterone receptor; 12 µM on Motilin receptor. The AC50 (in assay [2]; in assay [3]; at Adenosine receptor A2a) was > 30 µM each time.
For the compound `NNC(=O)c1ccncc1` [ISONIAZID], the AC50 (on Vasopressin V2 receptor; in assay [1]; at Glucocorticoid receptor; at Vasopressin V1a receptor; on Progesterone receptor; at Motilin receptor) was > 30 µM throughout. Further, the AC50 (in [2]; in assay [3]; on Adenosine receptor A2a) was > 30 µM throughout.
